Target: streptavidin (Streptomyces avidinii, UniProt P22629)
Conditions: mixture of 10.0 μM Pep K and 10.0 μM Pep R, 60 s at 20 μl/min, then ~15 s running buffer; immobilized streptavidin
Method: A bioactive chip BC containing streptavidin-derivatized separation site SS was exposed for 60 s (at a flow rate of 20 μl/min) to a mixture containing 10.0 μM Pep K and 10.0 μM Pep R, after which a ˜15 s exposure to the running buffer followed. The separation site SS on the bioactive chip BC was then MALDI-TOF MS analyzed.
The fitting parameters are listed in the figure and were used with starting concentrations of [Pep K]=7 uM; [Pep K(ox)]=3 uM; and [Pep R & Pep R(ox)]=10 uM. A criterion was used in which the relative quantities of the individual species at the end of the run corresponded to the relative quantities estimated from the mass spectrum taken from the surface of the separation site SS.

Sequence of streptavidin (P22629 25-183, species assumed): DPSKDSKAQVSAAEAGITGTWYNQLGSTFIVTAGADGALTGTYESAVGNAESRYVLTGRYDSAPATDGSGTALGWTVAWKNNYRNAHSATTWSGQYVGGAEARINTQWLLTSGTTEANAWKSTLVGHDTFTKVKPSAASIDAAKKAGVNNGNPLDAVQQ

Question: Which “retention by / affinity for streptavidin (change in MALDI-TOF ion signal intensity ratio before vs after interaction)” value does the source give for SGTSFHPQWIMVGRVATNSP [PepR] here?
Answer: The value was “preferential retention”.

From patent publication US6887713B2, “Bioactive chip mass spectrometry” (Intrinsic Bioprobes, Inc., priority 2000, dated 2005)
